In patent publication US11548870B2, “Compounds useful as inhibitors of helios protein” (Bristol-Myers Squibb Company, priority 2019, dated 2023):

What was measured:
Ikaros = target: T1, Ikaros (Homo sapiens, UniProt Q13422); assay: Helios Cellular Degradation Assay, Ikaros readout (flow cytometry, Ikaros-Alexa488 antibody staining, 72 h); assay type: cell-based; details: Jurkat cells, 72 h incubation, flow cytometry; for Dmax: Jurkat, read-out: Ikaros Dmax
T1 construct: fluorescently labelled antibodies against Helios and Ikaros; endogenous in cells; host or cells: Jurkat cells
In short: (§1)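 Jurkat cells (80,000/well, RPMI+10% FBS) were exposed to compound for 72 h at 37 °C, then fixed, permeabilized and co-stained for 1 h with Ikaros-Alexa488 and Helios-PE antibodies. Intracellular protein levels were read by flow cytometry.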

Helios = target: T2, Helios (Homo sapiens, UniProt Q96SW2+Q9UKS7); assay: Helios Cellular Degradation Assay (flow cytometry, Helios-PE antibody staining, 72 h); assay type: cell-based; details: Jurkat cells, 72 h incubation, flow cytometry; for Dmax: Jurkat, read-out: Helios Dmax
T2 construct: fluorescently labelled antibodies against Helios and Ikaros; endogenous in cells; host or cells: Jurkat cells
In short: as §1

T1 sequence (Q96SW2 whole entry partner): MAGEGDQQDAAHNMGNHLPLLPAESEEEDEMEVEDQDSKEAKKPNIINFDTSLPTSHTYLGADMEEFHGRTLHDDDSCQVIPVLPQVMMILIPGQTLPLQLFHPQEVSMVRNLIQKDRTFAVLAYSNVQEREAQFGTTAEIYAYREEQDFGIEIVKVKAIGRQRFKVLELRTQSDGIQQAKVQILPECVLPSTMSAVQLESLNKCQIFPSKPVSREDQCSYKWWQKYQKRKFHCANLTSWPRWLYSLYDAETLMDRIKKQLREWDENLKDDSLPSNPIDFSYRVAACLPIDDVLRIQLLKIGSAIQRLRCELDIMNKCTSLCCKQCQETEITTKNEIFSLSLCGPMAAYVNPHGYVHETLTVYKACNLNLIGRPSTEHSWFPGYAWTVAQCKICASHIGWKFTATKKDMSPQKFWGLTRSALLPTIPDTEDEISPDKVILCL
T1 sequence (Q16531 whole entry partner): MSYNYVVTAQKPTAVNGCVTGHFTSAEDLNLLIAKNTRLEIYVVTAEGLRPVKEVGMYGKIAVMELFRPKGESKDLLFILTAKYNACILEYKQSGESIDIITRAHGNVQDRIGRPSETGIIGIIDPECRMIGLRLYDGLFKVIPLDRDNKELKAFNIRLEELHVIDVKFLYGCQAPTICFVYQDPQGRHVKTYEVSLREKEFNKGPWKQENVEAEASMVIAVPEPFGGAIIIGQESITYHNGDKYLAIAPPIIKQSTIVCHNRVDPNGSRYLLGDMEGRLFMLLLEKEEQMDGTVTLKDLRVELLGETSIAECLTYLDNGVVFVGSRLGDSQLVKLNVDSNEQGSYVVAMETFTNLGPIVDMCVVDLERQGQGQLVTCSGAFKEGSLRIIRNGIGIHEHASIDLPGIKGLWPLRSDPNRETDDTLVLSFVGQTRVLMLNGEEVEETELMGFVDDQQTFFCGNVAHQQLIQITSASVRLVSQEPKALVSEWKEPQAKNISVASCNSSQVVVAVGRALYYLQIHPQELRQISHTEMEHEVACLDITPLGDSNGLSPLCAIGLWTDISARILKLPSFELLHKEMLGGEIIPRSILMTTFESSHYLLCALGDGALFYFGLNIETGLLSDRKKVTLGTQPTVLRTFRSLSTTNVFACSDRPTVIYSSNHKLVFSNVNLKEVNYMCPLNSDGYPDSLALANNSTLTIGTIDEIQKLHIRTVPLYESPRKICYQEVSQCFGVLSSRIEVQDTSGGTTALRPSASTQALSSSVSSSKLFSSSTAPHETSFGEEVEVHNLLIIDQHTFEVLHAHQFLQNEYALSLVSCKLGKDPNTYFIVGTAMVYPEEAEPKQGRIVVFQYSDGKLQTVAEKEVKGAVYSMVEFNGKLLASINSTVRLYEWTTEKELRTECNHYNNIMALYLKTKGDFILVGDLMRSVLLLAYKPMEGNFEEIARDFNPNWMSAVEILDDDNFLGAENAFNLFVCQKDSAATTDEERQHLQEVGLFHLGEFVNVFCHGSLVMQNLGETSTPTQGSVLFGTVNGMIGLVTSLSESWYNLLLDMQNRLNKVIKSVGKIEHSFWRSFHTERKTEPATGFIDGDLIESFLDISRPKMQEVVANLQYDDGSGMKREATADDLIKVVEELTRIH
T1 sequence (Q13422 whole entry): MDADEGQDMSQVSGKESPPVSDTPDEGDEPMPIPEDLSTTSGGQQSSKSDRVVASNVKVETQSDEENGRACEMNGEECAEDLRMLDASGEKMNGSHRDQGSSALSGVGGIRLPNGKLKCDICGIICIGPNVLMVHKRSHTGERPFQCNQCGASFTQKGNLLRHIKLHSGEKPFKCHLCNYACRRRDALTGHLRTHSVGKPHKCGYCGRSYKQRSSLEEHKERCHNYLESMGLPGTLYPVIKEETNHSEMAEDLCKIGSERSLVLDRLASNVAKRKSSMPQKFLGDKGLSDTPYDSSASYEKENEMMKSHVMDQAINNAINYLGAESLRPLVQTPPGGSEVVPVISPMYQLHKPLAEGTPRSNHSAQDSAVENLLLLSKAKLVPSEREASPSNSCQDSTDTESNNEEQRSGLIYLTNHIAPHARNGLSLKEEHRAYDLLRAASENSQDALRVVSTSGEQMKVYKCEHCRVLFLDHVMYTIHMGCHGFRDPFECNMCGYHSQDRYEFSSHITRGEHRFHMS
T2 sequence (Q9UKS7 whole entry): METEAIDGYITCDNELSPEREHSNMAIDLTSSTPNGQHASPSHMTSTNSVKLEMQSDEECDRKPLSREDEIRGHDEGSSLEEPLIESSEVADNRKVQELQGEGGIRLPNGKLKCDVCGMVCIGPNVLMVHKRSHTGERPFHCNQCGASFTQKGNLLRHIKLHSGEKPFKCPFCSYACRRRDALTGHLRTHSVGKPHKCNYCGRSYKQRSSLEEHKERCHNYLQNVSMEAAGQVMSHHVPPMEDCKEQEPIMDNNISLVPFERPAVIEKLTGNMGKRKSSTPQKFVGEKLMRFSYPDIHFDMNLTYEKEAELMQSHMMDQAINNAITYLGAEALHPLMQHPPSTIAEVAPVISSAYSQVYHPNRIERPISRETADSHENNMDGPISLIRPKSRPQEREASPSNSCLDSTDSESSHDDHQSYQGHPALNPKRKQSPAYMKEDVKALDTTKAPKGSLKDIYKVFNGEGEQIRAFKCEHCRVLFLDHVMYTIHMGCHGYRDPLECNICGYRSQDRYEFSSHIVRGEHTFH
T2 sequence (Q96SW2 whole entry): as the sequence (Q96SW2 whole entry partner) above
T2 sequence (Q16531 whole entry partner): as the sequence (Q16531 whole entry partner) above

| SMILES | DC50 (Ikaros) [nM] | Dmax (Ikaros) [%] | DC50 (Helios) [nM] | Dmax (Helios) [%] | Ikaros Dmax (Ikaros) [%] | Helios Dmax (Helios) [%] |
| --- | --- | --- | --- | --- | --- | --- |
| NCc1ccnc(-c2ccc3c(c2)CN(C2CCC(=O)NC2=O)C3=O)c1 (stereo not shown) [Example 144, 3-{5-[4-(Aminomethyl)pyridin-2-yl]-1-oxo-2,3-dihydro-1H-isoindol-2-yl}piperidine-2,6-dione] | > 10000 | 11 | 2020 | 57 |  |  |
| CNCc1ccnc(-c2ccc3c(c2)CN(C2CCC(=O)NC2=O)C3=O)c1 (stereo not shown) [Example 145, 3-(5-{4-[(Methylamino)methyl]pyridin-2-yl}-1-oxo-2,3-dihydro-1H-isoindol-2-yl) piperidine-2,6-dione] | > 10000 | 11 | 67 | 93 |  |  |
| O=C1CCC(N2Cc3cc(-c4cc(CN5CC[C@@H](c6ccccc6)C5)ccn4)ccc3C2=O)C(=O)N1 (stereo partly drawn) [Example 139, 3-(1-oxo-5-(4-(((S)-3-phenylpyrrolidin-1-yl)methyl)pyridin-2-yl)isoindolin-2-yl)piperidine-2,6-dione] | > 10000 | 3 | 25 | 91 |  |  |
| CCN(C)Cc1ccnc(-c2ccc3c(c2)CN(C2CCC(=O)NC2=O)C3=O)c1 (stereo not shown) [Example 6] | > 10000 |  | 28 |  | 6 | 86 |
| CC(=O)N[C@H]1CCN(Cc2ccnc(-c3ccc4c(c3)CN(C3CCC(=O)NC3=O)C4=O)c2)C1 (stereo partly drawn) [Example 31, N-((3S)-1-((2-(2-(2,6-dioxopiperidin-3-yl)-1-oxoisoindolin-5-yl)pyridin-4-yl)methyl)pyrrolidin-3-yl)acetamide] | > 10000 | 20 | 268 | 81 |  |  |
| COc1ccc(CNCc2ccnc(-c3ccc4c(c3)CN(C3CCC(=O)NC3=O)C4=O)c2)cc1 (stereo not shown) [Example 67, 3-(5-(4-(((4-methoxybenzyl)amino)methyl)pyridin-2-yl)-1-oxoisoindolin-2-yl)piperidine-2,6-dione] | > 10000 | 6 | > 10000 | 41 |  |  |
| CC1CCN1Cc1ccnc(-c2ccc3c(c2)CN(C2CCC(=O)NC2=O)C3=O)c1 (stereo not shown) [Example 46, 3-(5-(4-((2-methylazetidin-1-yl)methyl)pyridin-2-yl)-1-oxoisoindolin-2-yl)piperidine-2,6-dione] | > 10000 | 6 | 18 | 83 |  |  |
| O=C1CCC(N2Cc3cc(-c4cc(CNCC5CCCCC5)ccn4)ccc3C2=O)C(=O)N1 (stereo not shown) [Example 54, 3-(5-(4-(((cyclohexylmethyl)amino)methyl)pyridin-2-yl)-1-oxoisoindolin-2-yl)piperidine-2,6-dione] | > 10000 | 12 | 16 | 83 |  |  |

Second part, the compound after the results:

| DC50 (Ikaros) [nM] | Dmax (Ikaros) [%] | DC50 (Helios) [nM] | Dmax (Helios) [%] | Ikaros Dmax (Ikaros) [%] | Helios Dmax (Helios) [%] | SMILES |
| --- | --- | --- | --- | --- | --- | --- |
| > 10000 | 22 | 190 | 69 |  |  | CN(C)C(=O)C1CN(Cc2ccnc(-c3ccc4c(c3)CN(C3CCC(=O)NC3=O)C4=O)c2)C1 (stereo not shown) [Example 202, 1-((2-(2-(2,6-dioxopiperidin-3-yl)-1-oxoisoindolin-5-yl)pyridin-4-yl)methyl)-N,N-dimethylazetidine-3-carboxamide] |
| > 10000 | 3 | 130 | 60 |  |  | Cc1ccc(C2CCN(Cc3ccnc(-c4ccc5c(c4)CN(C4CCC(=O)NC4=O)C5=O)c3)CC2)cc1 (stereo not shown) [Example 199, 3-(1-oxo-5-(4-((4-(p-tolyl)piperidin-1-yl)methyl)pyridin-2-yl)isoindolin-2-yl)piperidine-2,6-dione] |
| > 10000 | 20 | 7 | 91 |  |  | O=C1CCC(N2Cc3cc(-c4cc(CN5CC(c6ccccc6)C5)ccn4)ccc3C2=O)C(=O)N1 (stereo not shown) [Example 83, 3-(1-oxo-5-(4-((3-phenylazetidin-1-yl)methyl)pyridin-2-yl)isoindolin-2-yl)piperidine-2,6-dione] |
| > 10000 | 1 | 36 | 73 |  |  | O=C1CCC(N2Cc3cc(-c4cc(CNCC5CC5)ccn4)ccc3C2=O)C(=O)N1 (stereo not shown) [Example 64, 3-(5-(4-(((cyclopropylmethyl)amino)methyl)pyridin-2-yl)-1-oxoisoindolin-2-yl)piperidine-2,6-dione] |
| > 10000 | 12 | 6 | 98 |  |  | O=C1CCC(N2Cc3cc(-c4cc(CN5CCC5c5ccccc5)ccn4)ccc3C2=O)C(=O)N1 (stereo not shown) [Example 76, 3-(1-oxo-5-(4-((2-phenylazetidin-1-yl)methyl)pyridin-2-yl)isoindolin-2-yl) piperidine-2,6-dione] |
| > 10000 | 7 | > 10000 | 26 |  |  | O=C1CCC(N2Cc3cc(-c4cc(CNCC5CCCO5)ccn4)ccc3C2=O)C(=O)N1 (stereo not shown) [Example 66, 3-(1-oxo-5-(4-((((tetrahydrofuran-2-yl)methyl)amino)methyl)pyridin-2-yl)isoindolin-2-yl)piperidine-2,6-dione] |
| > 10000 | 10 | 19 | 79 |  |  | C[C@@H]1CCN(Cc2ccnc(-c3ccc4c(c3)CN(C3CCC(=O)NC3=O)C4=O)c2)C1 (stereo partly drawn) [Example 70, 3-(5-(4-(((R)-3-methylpyrrolidin-1-yl)methyl)pyridin-2-yl)-1-oxoisoindolin-2-yl)piperidine-2,6-dione] |
| > 10000 | 8 | 98 | 67 |  |  | C[C@H](c1ccccc1)N(C)Cc1ccnc(-c2ccc3c(c2)CN(C2CCC(=O)NC2=O)C3=O)c1 (stereo partly drawn) [Example 137, 3-(5-(4-((methyl((R)-1-phenylethyl)amino)methyl)pyridin-2-yl)-1-oxoisoindolin-2-yl)piperidine-2,6-dione] |
| > 10000 | 15 | 192 | 71 |  |  | COCCNCc1ccnc(-c2ccc3c(c2)CN(C2CCC(=O)NC2=O)C3=O)c1 (stereo not shown) [Example 68, 3-(5-(4-(((2-methoxyethyl)amino)methyl)pyridin-2-yl)-1-oxoisoindolin-2-yl)piperidine-2,6-dione] |
| > 10000 | 2 | > 10000 | 50 |  |  | CN(C)[C@H]1CCN(Cc2ccnc(-c3ccc4c(c3)CN(C3CCC(=O)NC3=O)C4=O)c2)C1 (stereo partly drawn) [Example 33, 3-(5-(4-(((S)-3-(dimethylamino)pyrrolidin-1-yl)methyl)pyridin-2-yl)-1-oxoisoindolin-2-yl)piperidine-2,6-dione] |
| > 10000 | 0 | > 10000 | 32 |  |  | Cc1cccc(CNCc2ccnc(-c3ccc4c(c3)CN(C3CCC(=O)NC3=O)C4=O)c2)c1 (stereo not shown) [Example 57, 3-(5-(4-(((3-methylbenzyl)amino)methyl)pyridin-2-yl)-1-oxoisoindolin-2-yl)piperidine-2,6-dione] |
